The nature of data set [1]: Oral delivery of LHRH with delivery agent; plasma LHRH concentration. The format is in vivo, male Sprague-Dawley rats. Particulars: Delivery Agent: 200 mg/kg, LHRH: 1 mg/kg. As for the experimental part:
Oral gavage dosing solutions of delivery agent compound and LHRH in phosphate buffer were prepared by mixing. A solution of the delivery agent compound was made either with the sodium salt of the delivery agent compound or by converting the free acid to its sodium salt. A solution of the delivery agent compound was prepared in phosphate buffer and stirred, adding one equivalent of sodium hydroxide (1.0 N) when making the sodium salt. The final dosing solutions were prepared by mixing the delivery agent compound solution with a LHRH stock solution (2.75 ml with a concentration of 20 mg/ml in aqueous solution). The pH was adjusted, if necessary, to between about 7 and 8.8.
(§1) Male Sprague-Dawley rats weighing between about 250-300 g were fasted for 24 hours. A dosing group of five animals was administered one of the dosing solutions. An 11 cm Rusch 8 French catheter was adapted to a 1 ml syringe with a pipette tip. The syringe was filled with the dosing solution by drawing the solution through the catheter, which was then wiped dry. The catheter was placed down the esophagus leaving 1 cm of tubing past the incisors. The dosing solution was administered by pressing the syringe plunger.
Blood samples were collected through retroorbital bleeding of approximately 0.4 ml of blood volume using EDTA tubes at time=0 (pre-dose), 2, 10, 15 and 30 minutes. The five samples from each time period were pooled. Previous studies indicated baseline values of about zero. The maximum absorption at the Tmax is reported below in Table 7. As controls, 4-(3-methyl phenoxy) butyric acid (D.A. “B”), the mesylate salt of (4-(8-(2-hydroxyphenoxy)octyl) morpholine (D.A. “C”), 4-(4-(2-hydroxyphenoxy)butyl) morpholine (D.A. “D”), and 4-(6-(2-hydroxyphenoxy)hexyl) morpholine (D.A. “E”) were also administered according to the same protocol and their results are also shown in FIG. 6.

The subject of data set [2] is Blood glucose levels. Nature of the data set: Oral delivery of insulin with delivery agent compound; blood glucose by glucometer. The format is in vivo, male Sprague-Dawley rats. As to the method: Insulin stock solution (15 mg/ml) (Human zinc insulin, Calbiochem-Novabiochem Corp., La Jolla, Calif.) was prepared with deionized water. Oral dosing compositions containing 200 mg/kg of delivery agent compound and 0.5 mg/kg of insulin in aqueous solution were prepared with the delivery agent compound shown in Table 1 below. Either the sodium salt of the delivery agent compound was used or the free acid was converted to the sodium salt with one equivalent of sodium hydroxide.
The dosing solution was administered to fasted male Sprague-Dawley rats by oral gavage with an average weight of about 225-250 grams. Blood glucose levels were then determined by glucometer (One Touch Ultra®, LifeScan, Inc.) and compared to vehicle control (1 ml/kg of water). Samples were collected prior to dosing (time 0) and at 15, 30, 45 and 60 minutes after dosing. The % glucose reduction values in Table 1 are values found at the C minimum, and are an average % reduction with respect to the number of times the experiment was run for each delivery agent.
0.5 mg/kg of Insulin and 25-100 mg/kg of delivery agent compound (particular amount shown in Table 2 below) was administered to male Sprague-Dawley rats with an average weight of about 225-250 grams. The purpose of this test was to ascertain the dose response of the delivery agent compound. Glucose reduction was determined as set forth in connection with the data in Table 1.
Insulin Titrations were performed with Delivery Agent 29 in order to gauge the effect of varying dosages of insulin.

The test system of data set [3] is activated partial thromboplastin time (APTT). Put plainly: Intracolonic delivery of heparin with delivery agent; clotting time (APTT). The data set is classed as in vivo, male Sprague-Dawley rats. To be noted: Delivery Agent 50 mg/kg, USP Heparin 25 mg/kg; for Tmax: time of peak APTT. As to the method: Oral gavage and/or intracolonic (IC) dosing solutions containing delivery agent compound and heparin sodium USP were prepared in 25% aqueous propylene glycol. Either the sodium salt of the delivery agent compound was used or the free acid was converted to the sodium salt with one equivalent of sodium hydroxide. The delivery agent compound and heparin (about 166-182 IU/mg) were mixed by vortex as dry powders. This dry mixture was dissolved in 25% v/v aqueous propylene glycol, vortexed, and placed in a sonicator (about 37° C.). The pH was adjusted to about 7 (6.5-8.5) with aqueous NaOH (2N). The dosing solution was sonicated to produce a clear solution. The final volume was adjusted to about 3.0 ml.
as §1, with “about 275-350” for “about 250-300”, “24 hours and anesthetized with ketamine hydrochloride (88 mg/kg) intramuscularly immediately prior to dosing and again as needed to maintain anesthesia.” for “24 hours.”, “animals were” for “animals was”, “solutions. For oral gavage dosing, an” for “solutions. An”, “with” for “with the”
For intracolonic (IC) dosing, a 7.5 cm, 8 French Rusch catheter was adapted to a 1 ml syringe with a pipette tip. The dosing catheter was inserted into the colon through the anus until the tube was no longer visible. The dosing solution was expressed slowly into the colon by pressing the syringe plunger.
Citrated blood samples were collected by cardiac puncture following the administration of ketamine (88 mg/kg), typically at 0.25, 0.5, 1.0 and 1.5 hours after dosing. Heparin absorption was verified by an increase in clotting time measured by the activated partial thromboplastin time (APTT) according to the method of Henry, J. B., Clinical Diagnosis and Management by Laboratory Methods, Philadelphia, Pa., W.B. Saunders (1979), which is hereby incorporated by reference. Previous studies indicated baseline values of about 20 seconds. Results from the animals in each group were averaged for each time points and the highest of these averages (i.e. mean peak APTT) is reported.

[4] abbreviates: oral gavage, 200 mg/kg Delivery Agent Compound, 0.5 mg/kg Insulin, value at C minimum vs vehicle control.

With `COc1ccccc1SCCCCCC(=O)O` [Compound 3, 6-(2-Methoxy-phenylsulfanyl)-hexanoic acid], the melting point (in general, the temperature of the solid-liquid transition) lay within 81 to 82 °C. Moreover, the Tmax – broadly, the time from dosing to the highest level – in data set [1] came to 5 min. Molecule `O=C(O)CCCCCCCCCSc1ccccc1O` [Compound 8, 10-(2-Hydroxy-phenylsulfanyl)-decanoic acid] yielded a melting point of 58 to 59 °C. Also, in data set [2] (dose response, Delivery Agent Compound 25 mg/kg, Insulin 0.5 mg/kg), the “% Glucose Reduction” value is −9.7%. The “% Glucose Reduction” value in data set [2] (dose response, Delivery Agent Compound 50 mg/kg, Insulin 0.5 mg/kg) is given as −30.5%.

The molecule `Cc1ccc(C)c(SCCC(=O)O)c1` [Compound 9, 3-(2,5-Dimethyl-phenylsulfanyl)-propionic acid] showed a melting point of 100 to 102 °C. Turning to `COc1ccc(SCCCCCCCC(=O)O)cc1` [Compound 10, 8-(4-Methoxy-phenylsulfanyl)-octanoic acid], the melting point is 66 to 68 °C. Regarding `O=C(O)CCCCCCCSc1ccc(O)cc1` [Compound 11, 8-(4-Hydroxy-phenylsulfanyl)-octanoic acid], the melting point fell in the range of 94 to 95 °C. Also, in data set [3], the “APTT (mean peak)” value turned out to be 300.0 s and the Tmax was 30.0 min. Consider `O=C(O)CCCSc1ccccc1O` [Compound 12, 4-(2-Hydroxy-phenylsulfanyl)-butyric acid], for which the melting point fell in the range of 77 to 78 °C. As for `COc1ccc(SCC(=O)O)cc1` [Compound 13, (4-Methoxy-phenylsulfanyl)-acetic acid], the “% Glucose Reduction” value in data set [2] (setting [4]) was −18.2 ± 17.4%. On to `COc1ccccc1SCCCCCCC(=O)O` [Compound 16, 7-(2-Methoxy-phenylsulfanyl)-heptanoic acid], for which the “% Glucose Reduction” value in data set [2] (setting [4]) was −38.9 ± 32.7%. Same read-out and setting: the result for `COc1ccccc1SCCCCC(=O)O` [Compound 19, 5-(2-Methoxy-phenylsulfanyl)-pentanoic acid] reads −33.6 ± 32.4%; that for `COc1cccc(SCCCCCCCCCC(=O)O)c1` [Compound 20, 10-(3-Methoxy-phenylsulfanyl)-decanoic acid], −33.9 ± 41.8%. Still for that read-out and setting: the figure for `COc1cccc(SCCCCCC(=O)O)c1` [Compound 21, 6-(3-Methoxy-phenylsulfanyl)-hexanoic acid] is −19.4 ± 6.6%; for `COc1cccc(SCCCCCCCC(=O)O)c1` [Compound 22] it is −3.7 ± 9.4%; for `O=C(O)CCCCSc1cccc(Cl)c1` [Compound 24, 5-(3-Chloro-phenylsulfanyl)-pentanoic acid] it is −10.0 ± 17.7%.

As for `O=C(O)CCCCSc1ccccc1Cl` [Compound 25, 5-(2-Chloro-phenylsulfanyl)-pentanoic acid], in data set [2] (setting [4]), the “% Glucose Reduction” value is listed as −16.0 ± 13.4%. In the case of `COc1cccc(SCCCC(=O)O)c1` [Compound 27, 4-(3-Methoxy-phenylsulfanyl)-butyric acid], the “% Glucose Reduction” value in data set [2] (setting [4]) is given as −47.6 ± 17.4%. As to `O=C(O)CCCSc1cccc(Cl)c1` [Compound 29, 4-(3-Chloro-phenylsulfanyl)-butyric acid], the “% Glucose Reduction” value was −6.8% in data set [2] (insulin titration, Delivery Agent 200 mg/kg, Dose of Insulin 0.00 mg/kg); −31.4% in data set [2] (insulin titration, Delivery Agent 200 mg/kg, Dose of Insulin 0.25 mg/kg); −30.8% in data set [2] (insulin titration, Delivery Agent 200 mg/kg, Dose of Insulin 0.50 mg/kg).

With `O=C(O)CCCCCSc1cccc(Cl)c1` [Compound 32, 6-(3-Chloro-phenylsulfanyl)-hexanoic acid], the “% Glucose Reduction” value in data set [2] (setting [4]) is on record as −15.2 ± 28.9%.

As for `O=C(O)CCCCCCCSc1ccc(Cl)cc1` [Compound 33, 8-(4-Chloro-phenylsulfanyl)-octanoic acid], the melting point was 92 to 93 °C. `O=C(O)CCCSc1ccc(Cl)cc1` [Compound 34, 4-(4-Chloro-phenylsulfanyl)-butyric acid] came in with a melting point of 100 to 101 °C. With `O=C(O)CCCCCSc1ccc(O)cc1` [Compound 35, 6-(4-Hydroxy-phenylsulfanyl)-hexanoic acid], the melting point was in the range of 92 to 94 °C. In data set [3], the “APTT (mean peak)” value was determined as 100.0 s and the Tmax came out at 30.0 min. Turning to `O=C(O)CSc1cc(Cl)ccc1Cl` [Compound 40, (2,5-dichloro-phenylsulfanyl)-acetic acid], the “% Glucose Reduction” value in data set [2] (setting [4]) is reported as −6.0 ± 17.5%.

Turning to `O=C(O)CSc1ccc(Cl)c(Cl)c1` [Compound 42, (3,4-dichloro-phenylsulfanyl)-acetic acid], the “% Glucose Reduction” value in data set [2] (setting [4]) is reported as −22.1 ± 5.4%. For the molecule `O=C(O)CCSc1ccccc1Cl` [Compound 44, 3-(2-Chloro-phenylsulfanyl)-propionic acid], the “% Glucose Reduction” value in data set [2] (setting [4]) is on record as −7.8 ± 16.5%. In the case of `O=C(O)CCSc1cccc(Cl)c1` [Compound 45, 3-(3-Chloro-phenylsulfanyl)-propionic acid], in data set [2] (setting [4]), the “% Glucose Reduction” value is −6.5 ± 21.2%. Take `O=C(O)CSc1cccc(O)c1` [Compound 46, (3-Hydroxy-phenylsulfanyl)-acetic acid]: the “% Glucose Reduction” value in data set [2] (setting [4]) came out at 0.3 ± 27.7%. Turning to `O=C(O)CCCSc1cc(Cl)ccc1Cl` [Compound 50, 4-(2,5-dichloro-phenylsulfanyl)-butyric acid], the “% Glucose Reduction” value in data set [2] (setting [4]) is −15.8 ± 10.6%. Same read-out and setting: the figure for `O=C(O)CSc1cccc(F)c1` [Compound 51, (3-Fluoro-phenylsulfanyl)-acetic acid] is −24.9 ± 6.2%. Consider `O=C(O)CCCSc1ccc(Cl)c(Cl)c1` [Compound 53, 4-(3,4-dichloro-phenylsulfanyl)-butyric acid], for which the “% Glucose Reduction” value in data set [2] (setting [4]) is reported as −14.8 ± 7.0%.

Consider `O=C(O)CCCSc1ccccc1F` [Compound 54, 4-(2-Fluoro-phenylsulfanyl)-butyric acid], for which the “% Glucose Reduction” value in data set [2] (setting [4]) is reported as −37.4 ± 26.0%. The same measure, in the same setting: the result for `O=C(O)CSc1ccc(F)cc1` [Compound 55, (4-Fluoro-phenylsulfanyl)-acetic acid] reads −20.9 ± 17.5%; that for `O=C(O)CCCSc1ccc(F)cc1` [Compound 56], −4.5 ± 11.1%; that for `O=C(O)CCCCCSc1ccc(F)cc1` [Compound 57, 6-(4-Fluoro-phenylsulfanyl)-hexanoic acid], −11.0 ± 15.7%. As to `Cc1ccc(C)c(SCC(=O)O)c1` [Compound 58, (2,5-Dimethyl-phenylsulfanyl)-acetic acid], the melting point was in the range of 73 to 74 °C. Besides, the “% Glucose Reduction” value in data set [2] (setting [4]) is on record as −18.2%.

The values are drawn from patent US9873667B2, “Arylsulfanyl compounds and compositions for delivering active agents” (EMISPHERE TECHNOLOGIES INC., priority 2006, dated 2018).
